ChEMBL document CHEMBL1201862, “PubChem BioAssay data set” (2004)
Calls of active or inactive are those of the source.

Key:
[1] = HepG2 cell cytotoxicity, dose response, cytotoxicity control, ATP luminescence, cherry-pick, activator set 2 (AID 1053143); format: functional, cell-based
[2] = target: Luciferin 4-monooxygenase (Photinus pyralis, UniProt P08659); assay: firefly luciferase enzyme inhibitors, dose response, biochemical, luminescence (AID 1891)
[3] = target: T1, Heat shock factor protein 1 (Mus musculus, UniProt P38532); assay: inhibition of MG132-induced HSE-luciferase signal, confirmation, cell-based, NIH3T3, luminescence, dose retest (AID 2382); format: functional;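 also: NIH3T3 fibroblasts with HSF1-driven luciferase reporter stressed by proteasome inhibitor MG132; luminescence from HSF1-driven luciferase expression after 8 hours of MG132 stress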
T1 sequence (P38532 whole entry): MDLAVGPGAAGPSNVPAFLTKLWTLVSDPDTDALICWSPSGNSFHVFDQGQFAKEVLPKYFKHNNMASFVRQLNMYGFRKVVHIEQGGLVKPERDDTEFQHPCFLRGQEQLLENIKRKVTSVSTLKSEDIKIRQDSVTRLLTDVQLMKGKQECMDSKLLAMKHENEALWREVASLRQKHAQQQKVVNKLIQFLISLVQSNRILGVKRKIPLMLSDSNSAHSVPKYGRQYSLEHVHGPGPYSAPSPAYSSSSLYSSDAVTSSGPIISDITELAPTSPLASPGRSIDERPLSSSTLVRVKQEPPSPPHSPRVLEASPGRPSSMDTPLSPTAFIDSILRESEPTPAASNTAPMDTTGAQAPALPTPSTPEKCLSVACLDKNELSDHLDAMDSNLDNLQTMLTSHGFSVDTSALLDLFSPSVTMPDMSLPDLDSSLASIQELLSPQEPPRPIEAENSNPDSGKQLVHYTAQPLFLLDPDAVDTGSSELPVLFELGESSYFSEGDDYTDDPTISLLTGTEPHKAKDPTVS

[4] = tested on: Vero; assay: cells; format: functional; conditions: Chlorocebus sabaeus
[5] = Luminescence Cell-Based Dose Confirmation HTS to Identify Inhibitors of Platelet Dense Granule Release. [Related pubchem assays: 1663 (Primary HTS), 1678 (Summary of Project)]; format: functional
[6] = target: Induced myeloid leukemia cell differentiation protein Mcl-1 (Homo sapiens, UniProt Q07820); format: functional
[7] = target: T2, Carboxy-terminal domain RNA polymerase II polypeptide A small phosphatase 1 (Homo sapiens, UniProt Q9GZU7); assay: inhibitors of CTDSP1, concentration-response testing, biochemical assay, absorbance-based, actives from ultra-high-throughput screening (AID 540297); format: functional
T2 sequence (Q9GZU7 whole entry): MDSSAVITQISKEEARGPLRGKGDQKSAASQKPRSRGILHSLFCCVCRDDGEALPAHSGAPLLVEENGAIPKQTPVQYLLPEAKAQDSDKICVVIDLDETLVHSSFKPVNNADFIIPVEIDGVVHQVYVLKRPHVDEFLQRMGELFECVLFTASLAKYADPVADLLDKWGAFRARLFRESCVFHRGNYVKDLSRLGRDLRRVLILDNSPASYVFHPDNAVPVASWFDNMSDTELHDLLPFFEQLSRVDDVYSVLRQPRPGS

[8] = inhibitors of HIV Env-driven cell fusion, dose response, cherry-pick (AID 652057); format: functional, cell-based
[9] = inhibitors of clade B AD8 Env fusion, dose response, cell-based, cherry-pick (AID 652062); format: functional;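 also: luciferase signal from cell-cell fusion driven by HIV-1 clade B AD8 Env; potency is for inhibitors of fusion seen as a drop in luminescence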
[10] = off-target signal loss in HeLa-CEM21 co-culture – HeLa F-luc CTL cells, cherry-picked, counter-screen for HIV-1 Env fusion inhibitor project, dose response (AID 652040); format: functional, cell-based;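 also: potency for signal decrease marking cytotoxic or nonspecific inhibition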
[11] = ZM109 Env clade C HIV-1 fusion inhibitors, dose response, HeLa effector, CEM target cells, luciferase, cherry-pick (AID 652058); format: functional, cell-based
[12] = tested on: Vero; assay: cells; format: functional, cell-based; conditions: Chlorocebus sabaeus
[13] = HEK293 cell cytotoxicity, dose response, cytotoxicity control, plate reader, cherry-picked samples (AID 743446); format: functional, cell-based
[14] = MC4R antagonists, dose response, counter-screen for LGR2 antagonist project, cell-based, plate reader, cherry pick (AID 743444); format: functional;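 also: transfected HEK 293 cells stimulated with alpha-MSH peptide; potency of inhibitors of the alpha-MSH evoked signal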
[15] = LGR2 antagonists, dose response, cell-based, HEK293, CRE-luciferase reporter, cherry pick, set 2 (AID 743343); format: functional;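 also: transfected cells were stimulated with diluted bursicon conditioned medium after compound addition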
[16] = HepG2 cell cytotoxicity, dose response, cytotoxicity control, plate reader, cherry-pick, antagonist series (AID 743416); format: functional, cell-based
[17] = A549 cell cytotoxicity, dose response, cytotoxicity control, plate reader, cherry-pick, antagonist series (AID 743412); format: functional, cell-based
[18] = HEK293T cytotoxicity, dose response, cytotoxicity control for miR-122 modulator project, cell-based, activator set, cherry-pick (AID 720690); format: functional;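 also: HEK293T human cells scored for general mammalian cytotoxicity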
[19] = HepG2 cell cytotoxicity, dose response, cytotoxicity control for Shn3 inhibitor project, CellTiter-Glo, cherry-picked (AID 624134); format: functional, cell-based
[20] = control 3'UTR Renilla luciferase suppression, dose response, counter-screen for Shn3 inhibitor project, cell-based, Clone20-Shn3RL, cherry-picked (AID 624133); format: functional
[21] = Shn3 3'UTR reporter inhibitors, dose response, cell-based, Clone20 osteoblasts, firefly luciferase, cherry-picked (AID 624132); format: functional;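 also: firefly luciferase luminescence from reporter carrying the Shn3 3'UTR in osteoblasts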
[22] = target: T3, Leucine aminopeptidase (Plasmodium falciparum 3D7, UniProt Q8IL11); assay: P. falciparum M17LAP inhibitors, primary screen, biochemical, fluorogenic H-Leu-NHMec substrate, 1536-well (AID 1619); format: functional
T3 sequence (Q8IL11 whole entry): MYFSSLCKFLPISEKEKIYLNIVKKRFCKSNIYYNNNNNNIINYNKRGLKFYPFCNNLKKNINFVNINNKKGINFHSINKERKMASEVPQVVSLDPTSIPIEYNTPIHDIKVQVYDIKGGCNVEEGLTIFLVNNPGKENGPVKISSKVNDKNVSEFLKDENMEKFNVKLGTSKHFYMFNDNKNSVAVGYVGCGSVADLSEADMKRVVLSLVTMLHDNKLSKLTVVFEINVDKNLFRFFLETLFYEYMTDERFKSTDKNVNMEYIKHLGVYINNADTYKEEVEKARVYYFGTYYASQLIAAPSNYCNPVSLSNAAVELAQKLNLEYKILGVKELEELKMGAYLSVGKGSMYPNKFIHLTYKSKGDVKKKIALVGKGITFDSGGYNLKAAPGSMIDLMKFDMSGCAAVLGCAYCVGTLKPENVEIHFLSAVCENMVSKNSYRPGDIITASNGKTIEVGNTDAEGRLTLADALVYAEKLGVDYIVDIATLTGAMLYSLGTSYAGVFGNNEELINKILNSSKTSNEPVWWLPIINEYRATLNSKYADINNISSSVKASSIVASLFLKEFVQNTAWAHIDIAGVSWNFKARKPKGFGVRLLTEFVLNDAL

[23] = cells; format: functional, cell-based
[24] = cells; format: functional, cell-based; remark: listed apart in the source
[25] = target: Cytochrome P450 2C19 (Homo sapiens, UniProt P33261); assay: Cytochrome panel assay with activity outcomes. Panel member name: p450-cyp2c19 Compounds with AC50 equal or less than 10 uM are considered active; format: functional; conditions: read-out: AC50
Sequence of Cytochrome P450 2C19 (P33261 whole entry): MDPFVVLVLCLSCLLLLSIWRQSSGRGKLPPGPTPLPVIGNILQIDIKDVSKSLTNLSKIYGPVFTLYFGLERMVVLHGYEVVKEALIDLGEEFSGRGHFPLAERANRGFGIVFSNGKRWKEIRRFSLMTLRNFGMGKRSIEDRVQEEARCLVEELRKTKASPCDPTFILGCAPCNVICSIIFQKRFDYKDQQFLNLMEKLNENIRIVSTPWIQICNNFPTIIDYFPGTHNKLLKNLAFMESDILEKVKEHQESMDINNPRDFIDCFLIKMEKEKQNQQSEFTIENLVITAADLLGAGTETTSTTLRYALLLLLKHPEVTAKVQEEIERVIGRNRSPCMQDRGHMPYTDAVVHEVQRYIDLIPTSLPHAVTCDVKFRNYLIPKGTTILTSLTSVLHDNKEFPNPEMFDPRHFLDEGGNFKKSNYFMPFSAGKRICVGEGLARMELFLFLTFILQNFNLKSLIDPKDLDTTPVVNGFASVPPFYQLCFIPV

[26] = target: Cytochrome P450 2C9 (Homo sapiens, UniProt P11712)
Sequence of Cytochrome P450 2C9 (P11712 whole entry): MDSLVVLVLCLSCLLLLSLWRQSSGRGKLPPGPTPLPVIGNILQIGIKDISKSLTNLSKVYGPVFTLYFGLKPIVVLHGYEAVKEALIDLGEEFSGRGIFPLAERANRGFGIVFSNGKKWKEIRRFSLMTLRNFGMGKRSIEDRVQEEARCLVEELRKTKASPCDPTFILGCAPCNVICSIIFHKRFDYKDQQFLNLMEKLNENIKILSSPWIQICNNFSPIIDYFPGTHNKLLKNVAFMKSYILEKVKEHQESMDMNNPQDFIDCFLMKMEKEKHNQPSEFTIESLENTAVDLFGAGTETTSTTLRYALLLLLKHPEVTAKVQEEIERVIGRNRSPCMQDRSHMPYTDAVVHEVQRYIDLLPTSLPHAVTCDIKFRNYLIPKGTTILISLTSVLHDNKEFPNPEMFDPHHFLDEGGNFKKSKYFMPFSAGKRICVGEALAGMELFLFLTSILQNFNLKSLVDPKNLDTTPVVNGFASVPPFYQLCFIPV

[27] = target: Cytochrome P450 2D6 (Homo sapiens, UniProt P10635);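 also: CYP2D6 member of a cytochrome P450 panel assay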
Sequence of Cytochrome P450 2D6 (P10635 whole entry): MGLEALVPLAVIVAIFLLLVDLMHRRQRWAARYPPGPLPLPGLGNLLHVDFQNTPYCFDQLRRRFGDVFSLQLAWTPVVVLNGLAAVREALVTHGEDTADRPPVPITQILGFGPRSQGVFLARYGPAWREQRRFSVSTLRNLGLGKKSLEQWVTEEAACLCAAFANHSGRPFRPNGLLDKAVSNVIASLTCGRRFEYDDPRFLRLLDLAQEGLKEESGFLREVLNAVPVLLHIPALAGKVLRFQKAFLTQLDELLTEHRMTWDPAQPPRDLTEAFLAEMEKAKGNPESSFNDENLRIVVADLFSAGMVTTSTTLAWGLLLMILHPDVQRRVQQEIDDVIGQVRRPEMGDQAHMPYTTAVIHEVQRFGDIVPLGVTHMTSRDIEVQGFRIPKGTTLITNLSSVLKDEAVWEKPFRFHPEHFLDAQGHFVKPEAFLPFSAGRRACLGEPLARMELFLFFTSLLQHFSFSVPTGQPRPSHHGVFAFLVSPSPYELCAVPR

[28] = target: T4, Cytochrome P450 1A2 (Homo sapiens, UniProt P05177);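 also: PubChem cytochrome P450 panel assay, CYP1A2 panel member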
T4 sequence (P05177 whole entry): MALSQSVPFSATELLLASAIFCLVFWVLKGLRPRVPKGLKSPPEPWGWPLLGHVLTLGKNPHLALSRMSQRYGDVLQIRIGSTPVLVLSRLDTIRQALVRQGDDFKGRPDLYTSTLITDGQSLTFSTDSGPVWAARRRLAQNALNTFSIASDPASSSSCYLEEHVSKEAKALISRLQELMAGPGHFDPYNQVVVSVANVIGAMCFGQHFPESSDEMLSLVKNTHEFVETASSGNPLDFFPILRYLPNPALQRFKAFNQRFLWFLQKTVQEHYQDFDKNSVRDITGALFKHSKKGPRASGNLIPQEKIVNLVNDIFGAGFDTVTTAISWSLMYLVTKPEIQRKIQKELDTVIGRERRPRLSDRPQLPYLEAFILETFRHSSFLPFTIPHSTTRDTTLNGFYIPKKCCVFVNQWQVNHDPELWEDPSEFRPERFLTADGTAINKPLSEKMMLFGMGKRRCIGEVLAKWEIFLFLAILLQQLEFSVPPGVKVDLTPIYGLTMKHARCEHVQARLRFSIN

[29] = microbe, parasite or virus in culture; format: functional; conditions: Mycobacterium tuberculosis
[30] = target: Genome polyprotein (dengue virus type 2, UniProt P29990); assay: Dengue-2 NS5 methyltransferase inhibitors, primary screen, biochemical, confirmation dose response (AID 588689); format: functional
[31] = target: T5, Fatty acid synthase (Homo sapiens, UniProt P49327); assay: FAS thioesterase domain inhibitors, dose response, biochemical, endpoint fluorescence intensity, uHTS hits (AID 624327); format: functional;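 also: fluorescence from hydrolysis of an O-methyl fluorescein acyl ester substrate by the enzyme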
T5 sequence (P49327 whole entry, the tested form may be a part): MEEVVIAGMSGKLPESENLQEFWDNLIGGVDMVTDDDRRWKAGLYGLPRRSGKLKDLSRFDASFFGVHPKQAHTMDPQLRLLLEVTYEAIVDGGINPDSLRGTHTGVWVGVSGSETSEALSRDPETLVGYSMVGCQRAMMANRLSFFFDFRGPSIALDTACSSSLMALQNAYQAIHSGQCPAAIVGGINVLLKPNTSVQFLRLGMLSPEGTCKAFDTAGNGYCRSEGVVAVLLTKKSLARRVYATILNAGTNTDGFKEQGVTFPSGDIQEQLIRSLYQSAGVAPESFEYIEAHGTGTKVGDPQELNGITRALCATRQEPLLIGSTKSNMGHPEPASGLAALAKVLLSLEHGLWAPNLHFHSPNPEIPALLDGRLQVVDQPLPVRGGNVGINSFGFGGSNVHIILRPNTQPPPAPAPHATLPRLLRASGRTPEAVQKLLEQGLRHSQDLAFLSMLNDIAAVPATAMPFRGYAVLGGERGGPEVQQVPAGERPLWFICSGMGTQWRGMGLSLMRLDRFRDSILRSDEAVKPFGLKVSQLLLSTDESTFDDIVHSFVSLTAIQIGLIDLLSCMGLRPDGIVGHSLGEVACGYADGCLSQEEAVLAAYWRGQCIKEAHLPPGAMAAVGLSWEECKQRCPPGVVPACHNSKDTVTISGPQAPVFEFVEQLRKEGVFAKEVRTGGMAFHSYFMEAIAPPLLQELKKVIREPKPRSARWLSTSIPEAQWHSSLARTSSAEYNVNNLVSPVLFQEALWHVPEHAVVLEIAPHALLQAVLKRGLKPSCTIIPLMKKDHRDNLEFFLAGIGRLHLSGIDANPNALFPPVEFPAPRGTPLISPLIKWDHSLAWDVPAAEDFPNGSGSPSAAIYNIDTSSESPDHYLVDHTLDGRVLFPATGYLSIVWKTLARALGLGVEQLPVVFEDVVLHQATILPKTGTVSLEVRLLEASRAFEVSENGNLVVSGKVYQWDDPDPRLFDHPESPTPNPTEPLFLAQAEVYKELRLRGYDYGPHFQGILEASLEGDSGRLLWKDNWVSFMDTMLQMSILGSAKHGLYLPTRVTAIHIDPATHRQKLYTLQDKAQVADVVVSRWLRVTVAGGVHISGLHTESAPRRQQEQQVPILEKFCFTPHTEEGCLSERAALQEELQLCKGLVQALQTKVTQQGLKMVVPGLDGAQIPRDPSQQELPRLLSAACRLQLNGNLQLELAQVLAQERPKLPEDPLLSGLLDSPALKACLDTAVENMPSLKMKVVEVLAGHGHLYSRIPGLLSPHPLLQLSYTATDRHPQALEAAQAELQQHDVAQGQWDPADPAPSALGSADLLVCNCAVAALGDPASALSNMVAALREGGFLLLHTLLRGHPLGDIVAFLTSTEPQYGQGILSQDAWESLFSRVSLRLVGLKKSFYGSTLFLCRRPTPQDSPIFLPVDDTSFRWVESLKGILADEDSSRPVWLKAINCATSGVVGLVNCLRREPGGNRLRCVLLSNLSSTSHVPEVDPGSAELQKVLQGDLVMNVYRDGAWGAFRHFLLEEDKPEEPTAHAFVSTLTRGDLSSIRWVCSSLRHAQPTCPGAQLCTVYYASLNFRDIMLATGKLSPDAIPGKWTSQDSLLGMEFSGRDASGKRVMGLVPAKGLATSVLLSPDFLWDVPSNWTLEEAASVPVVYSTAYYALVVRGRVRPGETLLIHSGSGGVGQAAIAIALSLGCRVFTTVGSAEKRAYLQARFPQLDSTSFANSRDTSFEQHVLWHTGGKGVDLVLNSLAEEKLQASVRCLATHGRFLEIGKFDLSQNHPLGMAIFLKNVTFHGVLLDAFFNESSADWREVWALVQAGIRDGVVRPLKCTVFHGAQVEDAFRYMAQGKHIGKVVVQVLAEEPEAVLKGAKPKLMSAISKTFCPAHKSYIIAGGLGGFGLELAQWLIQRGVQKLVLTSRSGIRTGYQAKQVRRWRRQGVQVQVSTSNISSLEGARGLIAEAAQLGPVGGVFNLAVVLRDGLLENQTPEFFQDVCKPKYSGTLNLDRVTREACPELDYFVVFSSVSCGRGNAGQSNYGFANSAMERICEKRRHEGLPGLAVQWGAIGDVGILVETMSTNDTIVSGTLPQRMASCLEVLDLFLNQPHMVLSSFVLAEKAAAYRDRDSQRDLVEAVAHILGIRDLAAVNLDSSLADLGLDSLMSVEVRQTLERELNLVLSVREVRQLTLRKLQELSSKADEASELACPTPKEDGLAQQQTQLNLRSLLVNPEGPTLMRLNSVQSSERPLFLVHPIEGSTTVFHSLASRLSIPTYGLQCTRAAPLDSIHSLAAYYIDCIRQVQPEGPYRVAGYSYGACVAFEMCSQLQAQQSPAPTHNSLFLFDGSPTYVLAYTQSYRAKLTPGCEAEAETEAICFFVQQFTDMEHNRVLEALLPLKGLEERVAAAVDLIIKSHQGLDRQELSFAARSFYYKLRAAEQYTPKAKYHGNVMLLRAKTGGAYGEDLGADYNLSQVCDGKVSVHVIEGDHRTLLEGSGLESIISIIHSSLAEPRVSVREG

[32] = target: T6, Protein skinhead-1 (Caenorhabditis elegans, UniProt P34707); format: functional
T6 sequence (P34707 whole entry): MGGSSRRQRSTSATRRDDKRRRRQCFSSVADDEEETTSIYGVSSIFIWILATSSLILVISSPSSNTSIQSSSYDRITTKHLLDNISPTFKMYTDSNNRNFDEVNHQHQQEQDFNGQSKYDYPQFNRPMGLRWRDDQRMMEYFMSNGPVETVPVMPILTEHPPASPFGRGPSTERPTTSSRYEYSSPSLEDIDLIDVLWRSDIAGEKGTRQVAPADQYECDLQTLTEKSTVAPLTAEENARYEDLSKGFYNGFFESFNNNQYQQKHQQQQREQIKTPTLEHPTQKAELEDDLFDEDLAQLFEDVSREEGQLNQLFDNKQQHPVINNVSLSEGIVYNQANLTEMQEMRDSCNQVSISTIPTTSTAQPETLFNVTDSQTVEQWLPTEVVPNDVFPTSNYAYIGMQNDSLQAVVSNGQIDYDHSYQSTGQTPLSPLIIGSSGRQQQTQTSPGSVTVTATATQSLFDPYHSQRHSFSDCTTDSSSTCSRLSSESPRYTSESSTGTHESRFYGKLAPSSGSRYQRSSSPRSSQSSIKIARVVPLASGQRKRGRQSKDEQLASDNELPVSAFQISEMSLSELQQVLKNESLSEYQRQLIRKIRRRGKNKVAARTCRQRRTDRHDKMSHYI

[33] = target: FAD-linked sulfhydryl oxidase ALR (Homo sapiens, UniProt P55789); assay: inhibitors of human ALR sulfhydryl oxidase, dose response, biochemical, H2O2 detection, luminescence, cherry-pick (AID 493248)
Sequence of FAD-linked sulfhydryl oxidase ALR (P55789 whole entry, the tested form may be a part): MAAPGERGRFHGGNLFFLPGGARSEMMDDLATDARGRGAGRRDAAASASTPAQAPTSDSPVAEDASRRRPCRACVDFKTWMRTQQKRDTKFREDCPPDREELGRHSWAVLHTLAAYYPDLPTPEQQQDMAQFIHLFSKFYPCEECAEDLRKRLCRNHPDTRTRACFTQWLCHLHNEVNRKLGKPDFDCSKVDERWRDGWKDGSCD

[34] = target: T5, Fatty acid synthase; assay: FAS thioesterase domain inhibitors, dose response, biochemical, kinetic fluorescence intensity (AID 624326); format: functional;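 also: rate of fluorescence rise from hydrolysis of a fluorogenic O-methyl fluorescein ester substrate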

Sequence of Luciferin 4-monooxygenase (P08659 whole entry): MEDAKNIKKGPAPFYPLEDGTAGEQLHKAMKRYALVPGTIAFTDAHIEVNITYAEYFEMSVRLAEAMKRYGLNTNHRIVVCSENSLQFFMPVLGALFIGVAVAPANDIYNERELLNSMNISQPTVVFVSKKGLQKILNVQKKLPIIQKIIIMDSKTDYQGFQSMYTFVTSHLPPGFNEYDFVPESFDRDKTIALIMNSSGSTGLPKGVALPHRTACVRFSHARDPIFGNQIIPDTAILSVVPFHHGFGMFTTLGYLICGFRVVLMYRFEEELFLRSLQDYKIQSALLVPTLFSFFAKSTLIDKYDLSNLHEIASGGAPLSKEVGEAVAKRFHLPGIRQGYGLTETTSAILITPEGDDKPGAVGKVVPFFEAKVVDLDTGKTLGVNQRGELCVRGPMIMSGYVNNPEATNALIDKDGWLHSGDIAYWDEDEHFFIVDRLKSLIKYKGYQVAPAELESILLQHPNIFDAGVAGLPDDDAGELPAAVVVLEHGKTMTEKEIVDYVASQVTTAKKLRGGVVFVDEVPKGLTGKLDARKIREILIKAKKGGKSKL

N=c1c2c(ncn1CCCO)Oc1c(ccc3ccccc13)C2c1ccccc1 (stereo not given)
AC50 [1]: 26 µM (active) | EC50 [2]: > 112 µM (not active) | EC50 [3]: > 195 µM (not active) | CC50 [4]: 15.4 µM (active) | EC50 [5]: > 112 µM (not active)

COc1ccc(C(CC(=O)N2CCCC2)c2c(OC)cc(OC)c3c(-c4ccccc4)cc(=O)oc23)cc1 (stereo not given)
IC50 [6]: 4.62 µM (active) | IC50 [7]: 9.82 µM (active)

COC(=O)c1c(C)oc(C)c1S(=O)(=O)NC(c1ccccc1)c1ccccc1
AC50 [8]: 5.64 µM (active) | AC50 [9]: 6.05 µM (active) | AC50 [10]: 6.55 µM (active) | AC50 [11]: 6.38 µM (active)

Cc1ccc(C(=O)C[n+]2ccccc2C)cc1[N+](=O)[O-]
IC50 [12]: 5.84 µM (active)

CCC1=C(CC2NCCc3ccccc32)CC2c3cc(OC)c(OC)cc3CCN2C1 (stereo not given)
AC50 [13]: 33.6 µM (active) | AC50 [14]: 7.63 µM (active) | IC50 [12]: > 25 µM (active) | AC50 [15]: 6.49 µM (active) | CC50 [4]: 5.14 µM (active) | AC50 [16]: 4.16 µM (active) | AC50 [17]: 2.13 µM (active)

CC(C)CN(C(=O)C(c1ccccc1)c1ccccc1)c1c(N)n(CC(C)C)c(=O)[nH]c1=O
AC50 [8]: 1.62 µM (active) | AC50 [9]: 1.91 µM (active) | AC50 [10]: 1.72 µM (active) | AC50 [11]: 0.619 µM (active)

Cc1ccccc1-c1ccc([C@@H]2[C@@H](CO)N3CCCCN(C(=O)Nc4ccc(F)cc4)C[C@@H]23)cc1
AC50 [18]: 31.1 µM (active)

CN(C)C1=NC[C@H](Cc2ccccc2)N1CCCC1CCCC1
AC50 [19]: > 70 µM (inactive) | AC50 [20]: 2.5 µM (active) | AC50 [21]: 2.63 µM (active)

COc1cc(NC(=O)c2cccs2)ccc1NC(=O)c1ccco1
AC50 [1]: 12 µM (active)

Cc1occc1C(=O)Nc1sc2c(c1C(N)=O)CCCCC2
IC50 [22]: 54.6 µM (active)

O=C(Nc1ncccc1O)c1ccc2c(c1)OCO2
AC50 [1]: 26 µM (active) | EC50 [23]: 51.7 µM (active) | EC50 [24]: 99.2 µM (active)

COc1ccccc1NC(=O)Nc1nc(C(N)Cc2ccc(C(F)(F)F)cc2)cs1 (stereo not given)
AC50 [19]: 25.1 µM (active) | AC50 [20]: 24 µM (active) | AC50 [21]: 10.3 µM (active)

COc1ccccc1/C=C/C=N/N1CCN(Cc2ccc(Cl)cc2)CC1.Cl
AC50 [25]: 6.31 µM (inconclusive) | AC50 [26]: inconclusive | AC50 [27]: 8.91 µM (inconclusive) | AC50 [28]: 15.8 µM (inconclusive)

Oc1cc(Nc2ccccc2)cc2cccnc12
AC50 [19]: 36 µM (active) | CC50 [29]: 7.2 µM (active) | AC50 [20]: 6.62 µM (active) | AC50 [21]: 1.79 µM (active)

COc1ccc(OC[C@@H](CO)OC)cc1
AC50 [26]: inconclusive

Cc1ccc(CNC(=O)C2CC(c3ccccc3[N+](=O)[O-])=NO2)cc1 (stereo not given)
AC50 [26]: inconclusive

O=C(CCN1C(=O)/C(=C/c2ccccc2Cl)SC1=S)Nc1ccccc1C(=O)O
IC50 [30]: 77.7 µM (active) | IC50 [31]: 6.5 µM (active) | IC50 [32]: > 100 µM (inactive) | AC50 [33]: 2.46 µM (active) | IC50 [34]: 5.37 µM (active)
